Data from article PMC11167047 (Cell Death Discovery, 2024).

Legend:
Assay in all cases: kinome screen (33PanQinase)
Assay type in all cases: biochemical
p38β = target: T1, p38β (Homo sapiens, UniProt Q15759)
T1 construct: purchased Reaction Biology Europe GmbH (formerly ProQinase)
Protocol: (§1) The Kinome Screening was performed by Reaction Biology Europe GmbH (http://reactionbiology.com; Freiburg i. Br., Germany).

p38γ = target: T2, p38γ (Homo sapiens, UniProt P53778)
T2 construct: purchased Reaction Biology Europe GmbH (formerly ProQinase)
T2 sequence (P53778 1-367): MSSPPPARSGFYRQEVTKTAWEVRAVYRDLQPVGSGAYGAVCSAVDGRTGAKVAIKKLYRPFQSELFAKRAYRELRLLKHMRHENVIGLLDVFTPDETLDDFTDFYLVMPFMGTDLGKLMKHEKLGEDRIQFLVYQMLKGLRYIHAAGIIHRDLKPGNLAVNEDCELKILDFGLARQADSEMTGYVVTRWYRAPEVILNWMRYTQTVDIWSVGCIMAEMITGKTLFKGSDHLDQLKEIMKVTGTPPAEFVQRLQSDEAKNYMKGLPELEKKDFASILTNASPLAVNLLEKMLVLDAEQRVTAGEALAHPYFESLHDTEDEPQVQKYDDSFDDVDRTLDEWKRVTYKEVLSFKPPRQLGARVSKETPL
Protocol: as §1

IKKβ = target: T3, IKKβ (Homo sapiens, UniProt O14920)
T3 construct: purchased Reaction Biology Europe GmbH (formerly ProQinase)
T3 sequence (O14920 1-756): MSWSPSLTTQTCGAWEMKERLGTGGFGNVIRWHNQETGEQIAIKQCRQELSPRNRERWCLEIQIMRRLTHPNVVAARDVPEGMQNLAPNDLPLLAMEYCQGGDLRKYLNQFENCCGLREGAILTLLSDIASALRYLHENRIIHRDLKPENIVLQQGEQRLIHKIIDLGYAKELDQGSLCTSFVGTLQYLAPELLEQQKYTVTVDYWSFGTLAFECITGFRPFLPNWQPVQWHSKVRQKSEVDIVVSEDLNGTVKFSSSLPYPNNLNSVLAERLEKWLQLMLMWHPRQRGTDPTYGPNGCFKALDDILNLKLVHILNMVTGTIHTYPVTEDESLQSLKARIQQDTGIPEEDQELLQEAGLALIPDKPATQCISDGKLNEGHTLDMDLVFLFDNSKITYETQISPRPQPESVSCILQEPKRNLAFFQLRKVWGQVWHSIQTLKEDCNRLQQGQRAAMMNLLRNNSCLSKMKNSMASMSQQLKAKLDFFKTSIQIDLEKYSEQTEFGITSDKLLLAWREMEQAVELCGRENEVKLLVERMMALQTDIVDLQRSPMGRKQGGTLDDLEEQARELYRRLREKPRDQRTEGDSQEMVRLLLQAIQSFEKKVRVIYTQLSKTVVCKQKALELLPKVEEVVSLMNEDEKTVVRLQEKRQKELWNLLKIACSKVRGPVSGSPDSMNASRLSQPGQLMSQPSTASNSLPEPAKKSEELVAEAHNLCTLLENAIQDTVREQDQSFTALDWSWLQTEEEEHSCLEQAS
Protocol: as §1

DAPK2 = target: T4, DAPK2 (Homo sapiens, UniProt Q9UIK4)
T4 construct: purchased Reaction Biology Europe GmbH (formerly ProQinase)
Protocol: as §1

DYRK1B = target: T5, DYRK1B (Homo sapiens, UniProt Q9Y463)
T5 construct: purchased Reaction Biology Europe GmbH (formerly ProQinase)
Protocol: as §1

EEF2K = target: T6, EEF2K (Homo sapiens, UniProt O00418)
T6 construct: purchased Reaction Biology Europe GmbH (formerly ProQinase)
T6 sequence (O00418 1-725): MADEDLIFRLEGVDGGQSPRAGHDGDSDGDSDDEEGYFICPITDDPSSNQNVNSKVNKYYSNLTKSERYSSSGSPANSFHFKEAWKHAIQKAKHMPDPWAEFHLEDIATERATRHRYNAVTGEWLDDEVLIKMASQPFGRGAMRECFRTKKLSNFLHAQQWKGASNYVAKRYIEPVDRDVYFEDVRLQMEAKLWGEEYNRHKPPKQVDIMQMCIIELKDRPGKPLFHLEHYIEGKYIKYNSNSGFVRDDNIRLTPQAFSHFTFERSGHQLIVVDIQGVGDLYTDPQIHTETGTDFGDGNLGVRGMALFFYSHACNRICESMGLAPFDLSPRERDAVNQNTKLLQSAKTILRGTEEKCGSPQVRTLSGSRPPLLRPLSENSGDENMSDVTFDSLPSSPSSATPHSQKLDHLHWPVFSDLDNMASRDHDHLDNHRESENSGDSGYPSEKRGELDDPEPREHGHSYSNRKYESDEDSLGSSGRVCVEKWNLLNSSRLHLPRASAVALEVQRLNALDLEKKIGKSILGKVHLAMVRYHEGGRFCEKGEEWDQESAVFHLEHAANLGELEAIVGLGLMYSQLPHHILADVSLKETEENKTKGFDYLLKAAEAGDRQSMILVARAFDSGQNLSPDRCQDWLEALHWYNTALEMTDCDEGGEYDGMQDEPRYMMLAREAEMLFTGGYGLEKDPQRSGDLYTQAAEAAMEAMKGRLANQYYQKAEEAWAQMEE
Protocol: as §1

PKA = target: T7, PKA (Homo sapiens, UniProt P17612)
T7 construct: purchased Reaction Biology Europe GmbH (formerly ProQinase)
Protocol: as §1

DYRK3 = target: T8, DYRK3 (Homo sapiens, UniProt O43781)
T8 construct: purchased Reaction Biology Europe GmbH (formerly ProQinase)
T8 sequence (O43781 1-588): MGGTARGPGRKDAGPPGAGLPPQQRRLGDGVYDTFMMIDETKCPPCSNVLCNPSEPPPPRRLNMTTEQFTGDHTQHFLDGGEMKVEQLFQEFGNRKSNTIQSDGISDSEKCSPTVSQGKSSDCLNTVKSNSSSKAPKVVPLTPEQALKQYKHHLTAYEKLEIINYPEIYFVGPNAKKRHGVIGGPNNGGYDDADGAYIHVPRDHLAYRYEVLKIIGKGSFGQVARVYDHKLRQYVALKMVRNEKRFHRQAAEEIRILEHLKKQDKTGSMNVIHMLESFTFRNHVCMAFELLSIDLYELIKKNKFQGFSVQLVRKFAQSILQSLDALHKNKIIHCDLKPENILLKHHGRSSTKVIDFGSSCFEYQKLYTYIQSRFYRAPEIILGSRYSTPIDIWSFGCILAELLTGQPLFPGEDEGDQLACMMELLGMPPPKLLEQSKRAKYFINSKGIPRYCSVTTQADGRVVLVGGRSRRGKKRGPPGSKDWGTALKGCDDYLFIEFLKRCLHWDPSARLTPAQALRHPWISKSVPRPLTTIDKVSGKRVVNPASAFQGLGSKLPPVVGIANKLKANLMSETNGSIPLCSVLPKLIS
Protocol: as §1

T4 sequence (Q9UIK4 whole entry): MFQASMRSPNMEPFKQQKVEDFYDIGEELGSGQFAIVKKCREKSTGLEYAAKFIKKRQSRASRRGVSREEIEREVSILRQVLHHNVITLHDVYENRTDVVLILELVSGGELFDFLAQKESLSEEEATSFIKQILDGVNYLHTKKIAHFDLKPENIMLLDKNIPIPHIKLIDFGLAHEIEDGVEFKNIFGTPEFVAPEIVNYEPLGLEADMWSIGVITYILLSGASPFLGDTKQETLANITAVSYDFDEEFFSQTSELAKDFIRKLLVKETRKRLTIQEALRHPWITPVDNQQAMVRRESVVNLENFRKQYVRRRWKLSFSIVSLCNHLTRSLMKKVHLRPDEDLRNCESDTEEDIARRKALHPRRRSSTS
T1 sequence (Q15759 whole entry): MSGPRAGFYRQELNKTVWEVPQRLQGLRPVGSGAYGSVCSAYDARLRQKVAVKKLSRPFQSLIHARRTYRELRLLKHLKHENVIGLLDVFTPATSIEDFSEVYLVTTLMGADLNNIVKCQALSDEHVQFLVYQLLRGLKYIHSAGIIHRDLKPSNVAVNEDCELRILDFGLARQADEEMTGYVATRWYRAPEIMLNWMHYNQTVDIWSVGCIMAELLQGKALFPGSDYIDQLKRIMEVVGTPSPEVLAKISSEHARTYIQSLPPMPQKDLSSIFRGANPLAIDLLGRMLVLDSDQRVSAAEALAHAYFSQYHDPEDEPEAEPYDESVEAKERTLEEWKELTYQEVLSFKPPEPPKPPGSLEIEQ
T5 sequence (Q9Y463 whole entry): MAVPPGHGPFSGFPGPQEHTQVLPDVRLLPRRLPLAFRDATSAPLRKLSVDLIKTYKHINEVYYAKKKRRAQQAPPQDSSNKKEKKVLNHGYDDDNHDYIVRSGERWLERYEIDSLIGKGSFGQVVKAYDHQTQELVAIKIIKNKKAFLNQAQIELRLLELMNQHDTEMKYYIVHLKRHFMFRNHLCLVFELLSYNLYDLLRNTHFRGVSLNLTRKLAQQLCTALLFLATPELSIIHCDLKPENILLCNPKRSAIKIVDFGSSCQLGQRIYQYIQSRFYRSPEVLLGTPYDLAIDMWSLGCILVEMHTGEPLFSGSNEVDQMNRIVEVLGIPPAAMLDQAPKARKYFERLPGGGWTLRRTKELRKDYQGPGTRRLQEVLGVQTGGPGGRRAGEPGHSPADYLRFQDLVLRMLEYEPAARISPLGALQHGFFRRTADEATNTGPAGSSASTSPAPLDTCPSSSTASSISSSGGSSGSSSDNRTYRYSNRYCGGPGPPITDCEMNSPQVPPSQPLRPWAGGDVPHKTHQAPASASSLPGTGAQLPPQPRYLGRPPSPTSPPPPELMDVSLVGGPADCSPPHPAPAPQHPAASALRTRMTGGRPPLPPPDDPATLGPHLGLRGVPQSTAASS

Compound | residual kinase activity (p38β; 0.3 µM) | residual kinase activity (p38γ; 0.3 µM) | residual kinase activity (IKKβ; 0.3 µM) | residual kinase activity (DAPK2; 0.3 µM) | residual kinase activity (DYRK1B; 0.3 µM) | residual kinase activity (EEF2K; 0.3 µM) | residual kinase activity (PKA; 0.3 µM) | residual kinase activity (DYRK3; 0.3 µM) | further results
COc1ccnc2[nH]cc(-c3cc(N)nc(N)c3)c12 [meriolin 16] | 88 % of control | 8 % of control | 64 % of control | 78 % of control | 0 % of control | 89 % of control | 43 % of control | 2 % of control | residual kinase activity (p38β; 0.03 µM): 79 % of control; residual kinase activity (p38γ; 0.03 µM): 56 % of control; residual kinase activity (IKKβ; 0.03 µM): 85 % of control; residual kinase activity (DAPK2; 0.03 µM): 106 % of control; residual kinase activity (DYRK1B; 0.03 µM): 8 % of control; residual kinase activity (EEF2K; 0.03 µM): 96 % of control; residual kinase activity (PKA; 0.03 µM): 75 % of control; residual kinase activity (DYRK3; 0.03 µM): 27 % of control
c1ccc(CNc2cc(-c3c[nH]c4ncccc34)ccn2)cc1 [meriolin 36] | 77 % of control | 64 % of control | 80 % of control | 118 % of control | 7 % of control | 84 % of control | 12 % of control | 59 % of control | residual kinase activity (p38β; 3 µM): 84 % of control; residual kinase activity (p38γ; 3 µM): 19 % of control; residual kinase activity (IKKβ; 3 µM): 36 % of control; residual kinase activity (DAPK2; 3 µM): 67 % of control; residual kinase activity (DYRK1B; 3 µM): 0 % of control; residual kinase activity (EEF2K; 3 µM): 97 % of control; residual kinase activity (PKA; 3 µM): 2 % of control; residual kinase activity (DYRK3; 3 µM): 14 % of control
